According to patent US20080112992A1, “METHOD FOR CONTROLLING THE APPLICATION OF AN INSECTICIDE AND COMPOSITION THEREOF” (FLIT.S.A., priority 2001, published 2008):

Assay: Colour change time after spraying on surfaces and drying in air
Format: physicochemical
Protocol: This composition of a pH of about 7.0 and of a yellow colour was applied by spraying to various kinds of surfaces, such as wood, painted wood, painted walls, ceramic tile, plastic (polyethylene), glass and stainless steel.
After about 40 minutes of exposure to air (including carbon dioxide), the composition was dried and the yellow colour disappeared.
Other levels of 4-nitrophenol were tested, and it was shown that with 0.05 wt % the yellow colour was somewhat faint but with a shorter colour changing time (about 25 min.), whereas with highest content, i.e. 0.5 resp. 1.0%, the colour change takes more time, i.e. 70 resp. 120 min.
Phenolphthalein was also tested at levels of 0.01 to 1.0 wt %, which all gave acceptable results and a colour change of about 40 min. The pH of the composition was initially adjusted to 9.4 using triethanolamine.

colour change time (phenolphthalein at 0.01 to 1.0 wt %, pH initially adjusted to 9.4 using triethanolamine)	SMILES	colour changing time (0.05 wt % 4-nitrophenol in the composition, yellow colour somewhat faint)	colour change time (0.5 % 4-nitrophenol in the composition) [min]	colour change time (1.0 % 4-nitrophenol in the composition) [min]
about 40 min.	O=C1OC(c2ccc(O)cc2)(c2ccc(O)cc2)c2ccccc21 [Phenolphthalein, phenolphthalein]	–	–	–
–	O=[N+]([O-])c1ccc(O)cc1 [4-nitrophenol]	about 25 min.	70	120
